Results from publication PMC7844538, “Peptide-Conjugated Phosphorodiamidate Morpholino Oligomers Retain Activity against Multidrug-Resistant Pseudomonas aeruginosa In Vitro and In Vivo” (mBio, 2021).

Legend:
[1] = system: P. aeruginosa strain MB447; test: Acute pneumonia mouse model with XDR strain, survival; assay type: in vivo, Pseudomonas aeruginosa in BALB/c mice; details: for survival at day 4: 15 mg/kg intratracheal at 15 min, then intranasal at 24 h (legend: 6 h); for Median survival: 15 mg/kg, two treatments, Kaplan-Meier
Procedure: To test whether PPMOs retained in vivo activity in an XDR strain, we utilized the AcpP-RXR(5′) PPMO in the acute pneumonia model using XDR P. aeruginosa strain MB447, a carbapenem-resistant bloodstream isolate. […] Mice were infected intratracheally followed by intratracheal treatment 15 min postinfection with either 15 mg/kg of AcpP-RXR(5′), scrambled control PPMO (Scr), PBS, 15 mg/kg of meropenem, or 15 mg/kg of tobramycin, and the bacterial burden was determined at 24 h postinfection.
Mice were infected intratracheally with P. aeruginosa strain MB447 (∼10^7 CFU/mouse). (A) Mice were treated intratracheally 15 min postinfection with 15 mg/kg/24 h of AcpP-RXR(5′) and the corresponding scrambled PPMO, tobramycin, and meropenem and were euthanized at 24 h, and lung tissues were processed as previously described. All samples were plated for viable CFU on PIA. Each symbol represents the value for a single mouse. Error bars represent SEM. Statistical differences were determined using one-way ANOVA and indicated as follows: ****, P < 0.0001; **, P < 0.01; *, P < 0.05. (B) Mice were treated intratracheally 15 min postinfection and intranasally at 6 h postinfection (a total of two treatments) with the same compounds and doses. Mice were monitored for 4 days postinfection.
P. aeruginosa strains PA103, PA103 P1-lux, and MB447 were grown on Pseudomonas isolation agar (PIA) for 16 to 18 h at 37°C and suspended in PBS to an optical density at 600 nm (OD600) of 0.5, corresponding to ∼10^9 CFU/ml. Inocula were adjusted spectrophotometrically to obtain the desired sublethal challenge dose in a volume of 25 μl. Six- to 8-week-old female BALB/c mice (Jackson Laboratories, Bar Harbor, ME) were anesthetized by intraperitoneal injection of 0.2 ml of a mixture of ketamine (6.7 mg/ml) and xylazine (1.3 mg/ml). Mice were infected by noninvasive intratracheal instillation of dilutions of P. aeruginosa strain as indicated ([34]).

P. aeruginosa MB447 = test: MIC against XDR strain MB447; assay type: cell-based, Pseudomonas aeruginosa; details: medium not stated
Procedure: MIC assays of PPMOs were determined according to the Clinical and Laboratory Standards Institute (CLSI) broth microdilution method ([29]), using the method previously described ([14]). The assays were performed in 96-well tissue culture plates (Thermo Fisher Scientific, Waltham, MA). All reagents were analytical grade and were obtained from Sigma-Aldrich (St. Louis, MO), Acros Organics (Geel, Belgium), UT Southwestern Campus Pharmacy, or Thermo Fisher Scientific (Waltham, MA). Morpholinopropanesulfonic acid (MOPS) minimal medium was prepared as previously described ([30], [31]).

P. aeruginosa PA103 = test: Acute pneumonia mouse model, intraperitoneal PPMO alone or with tobramycin, survival; assay type: in vivo, Pseudomonas aeruginosa in BALB/c mice; details: intraperitoneal at 6, 12 and 24 h; Kaplan-Meier
Procedure: Mice were treated by intraperitoneal injection of RpsJ-RXR(3′) (15 mg/kg), tobramycin (15 mg/kg), scrambled PPMO (15 mg/kg) alone or in combination (scrambled PPMO plus tobramycin or RpsJ PPMO plus tobramycin) at 6, 12, and 24 h for a total of three treatments after intratracheal infection with a […] dose of P. aeruginosa PA103. Mice were monitored for up to 4 days postinfection. […] Mice treated with RpsJ-RXR(3′) or tobramycin had 50 to 60% increased survival compared to PBS or scrambled control, respectively.
FIG 4 PPMOs work in concert with traditional antibiotics to improve survival in acute lung model of infection. […] Mice were monitored for 4 days postinfection. Results are represented by Kaplan-Meier survival curves and were analyzed by log rank test (log rank test, RpsJ versus PBS, P < 0.001; RpsJ versus Scr, P < 0.05; RpsJ versus RpsJ plus tobramycin, P < 0.05; Scr versus Scr plus tobramycin, P = 0.1778. Median survival: PBS, 36 h; Scr, 48 h; RpsJ, tobramycin, and combination treatments, undefined). […]
Mice were infected as described above and treated either intraperitoneally or intranasally with 15 mg/kg/treatment of PPMO or corresponding controls as indicated. Animals were treated at 6, 12, or 24 h postinfection, with a total of three doses and were monitored for survival up to 4 days postinfection.

[2] = system: P. aeruginosa PAO1 biofilm; test: Established biofilm on MBEC pegs, viability (resazurin, CFU); assay type: cell-based, Pseudomonas aeruginosa; details: PAO1, 24 h biofilm, dosed at 24, 32, 40 h, read at 48 h; tobramycin 0.625 µg/ml, PPMO 0.25 µM (legend 2.5 μM)
Procedure: PAO1 biofilms were established on MBEC pegs for 24 h and then treated either with 0.625 μg/ml tobramycin, 0.25 μg/ml piperacillin/tazobactam (Pip/Tazo), 2.5 μM AcpP-RXR(3′), 2.5 μM RpsJ-RXR(3′) or with a combination of PPMO and antibiotic at 24, 32, and 40 h. […]
The viability and metabolic state of biofilm-associated cells were determined using resazurin dye ([17]). […] This time point was previously optimized based on the time needed for the untreated control cells to reach maximum fluorescence. The plates were read at an excitation of 530 nm and emission of 590 nm on a Synergy BioTek plate reader. Viable CFU from the biofilms were also determined by rinsing MBEC pegs in PBS three times to remove planktonic bacteria, followed by cutting the peg off the base with a hot scalpel and placing it in a 14 ml Falcon tube containing 1 ml PBS. […]

[3] = system: P. aeruginosa PAO1 biofilm; test: Established biofilm on MBEC pegs, crystal violet (total biomass); assay type: cell-based, Pseudomonas aeruginosa; details: PAO1, 24 h biofilm, dosed at 24, 32, 40 h, read at 48 h; tobramycin 0.625 µg/ml, piperacillin-tazobactam 0.25 µg/ml, PPMO 0.25 µM (legend 2.5 μM)
Procedure: We previously reported that treatment with PPMO alone was effective in both preventing and decreasing established P. aeruginosa biofilm in vitro ([14]). Here, we aimed to determine whether combining a PPMO with a traditional antibiotic (that also had minimal biofilm-inhibitory activity on its own) could enhance biofilm eradication compared to either drug alone. Biofilms were established in minimal biofilm eradication concentration (MBEC) plates by growing P. aeruginosa PAO1 at 37°C. At 24 h postinoculation, lids with established biofilm were moved to new 96-well plates containing fresh media with either antibiotic only (0.625 µg/ml tobramycin or 0.25 µg/ml piperacillin-tazobactam), PPMO only [0.25 µM either AcpP-RXR(3′) or RpsJ-RXR(3′)], or PPMO plus antibiotic as indicated. We hypothesized that the combination of antibiotics and PPMOs targeting a similar cellular process, such as bacterial cell wall (AcpP and piperacillin-tazobactam) or protein synthesis (RpsJ and tobramycin) would enhance biofilm eradication.
FIG 1 PPMOs in combination with traditional antibiotics display enhanced activity and reduce established P. aeruginosa strain PAO1 biofilm. […] Statistical differences were determined by one-way ANOVA and indicated as follows: ***, P < 0.0001; **, P < 0.001; *, P < 0.05; n.s., not significant. […]

Compound: C[C@@H](O)[C@H]1C(=O)N2C(C(=O)O)=C(S[C@@H]3CN[C@H](C(=O)N(C)C)C3)[C@H](C)[C@H]12 [meropenem]
- survival at day 4 [1]: 0%
- Median survival [1]: 34 h
- MIC of strain MB447 against antibiotic (P. aeruginosa MB447): 32 µM

Compound: NC[C@H]1O[C@H](O[C@H]2[C@H](O)[C@@H](O[C@H]3O[C@H](CO)[C@@H](O)[C@H](N)[C@H]3O)[C@H](N)C[C@@H]2N)[C@H](N)C[C@@H]1O [tobramycin]
- survival at day 4 [1]: 67%
- Median survival [1]: undefined
- Median survival (P. aeruginosa PA103): undefined
- decrease of biofilm cell viability compared to no treatment [2]: 50%
- reduction of established biofilm mass compared to untreated [3]: 50%
- MIC of strain MB447 against antibiotic (P. aeruginosa MB447): 8 µM

Compound: piperacillin-tazobactam
- reduction of established biofilm mass compared to untreated [3]: no impact on established biofilm
